One data set deals with guinea pig ileum. The experiment in a line: tissue or blood. To be noted: for EC50: Cavia porcellus, read-out: ED50. The data set is classed as cell-based.
For data set [1] the following is noted: pH 7.
In data set [2] the test system is Human Eyes. To be noted: in vivo.
For another data set, the system named is Mice Eyes. To be noted: mouse, in vivo.
Data set [3] deals with Human Eyes. As to conditions: in vivo. This is another data set of the same source.
The conditions of data set [4]: in vivo.

Several values for one entry are separate records, joined by “and”; a condition that tells them apart may be missing. Equal entries are not always repeated. Where two headings read alike, the source gives them in different places.

As to `CC(=O)OC1CN2CCC1CC2` (racemic) [(±) H Cl, 3-acetoxy-quinuclidine, reference compound], in the data set on guinea pig ileum, the “EPMR (Equipotent molar ratio)” value was found to be 20 and the EC50 was 700 nM.

As to `CC(=O)OC1CN2CCC1CC2` (single isomer, unassigned; (+)) [(+) 3-acetoxy quinuclidine], the “stability of solutions on storage” value in data set [1] is “no perceptible deterioration”.

As for `CC(=O)OC1CN2CCC1CC2` (single isomer, unassigned; (+)) [(+) H Cl, (+) 3-acetoxy quinuclidine], in the data set with guinea pig ileum, the ACh-like agonist strength entry is “strongest agonist”, the “Blockade of agonist effect by atropine” value is “blocked” and the “EPMR (Equipotent molar ratio)” value was found to be 25. In the data set with Human Eyes [2], the “Pupil Diam.” value was 4.5 mm and 3.0 mm and 3.5 mm. Further, the “Time after which acute miosis developed” value with Mice Eyes is 4 min. The same compound returned a Pupil Diameter in the data set on Human Eyes [3] of 3.5 mm.

On to `CC(=O)OC1CN2CCC1CC2` (single isomer, unassigned; (-)) [(-) H Cl], for which the “EPMR (Equipotent molar ratio)” value in the data set with guinea pig ileum was found to be 100. Besides, the “Pupil Diameter” value in the data set with Human Eyes [2] is 4.5 mm and 4.0 mm and 3.5 mm and 3.7 mm and 3.0 mm and 3.2 mm and 3.6 mm. For the same compound, the “Reversal of Mydriasis Time” value in the data set with Mice Eyes is over 15 min.

On to `CC(=O)OCC[N+](C)(C)C` [Acetylcholine, reference compound], for which the EC50 in the data set on guinea pig ileum stood at 30 nM.

In the case of `CC[C@@H]1C(=O)OC[C@@H]1Cc1cncn1C` [Pilocarpine], the Intraoccular pressure in data set [4] is 31 mmHg and 33 mmHg and 24 mmHg and 25 mmHg and 26 mmHg and 29 mmHg and 28 mmHg.

For the origin of these results see patent US3997543A (priority 1974, dated 1976).
